# Results reported in patent US12540922B2, “Quantitative shotgun proteome, lipidome, and metabolome analysis by direct infusion” (Wisconsin Alumni Research Foundation, priority 2021, dated 2026).
# System: 293T cells (wild type or PPTC7 knockout)
# Test: MitoTox screen: DI-SPA proteome quantification of toxin-treated cells
# Assay type: cell-based, human
# Conditions: 6-hour compound treatments, DMEM or HPLM
# Description: Wild type or PPTC7 knockout (KO) cells were grown in either standard or modified media, DMEM or HPLM (Cantor et al., Cell, 169, 258-272.e17 (2017)), respectively, and treated in triplicate with one of nine mitochondrial toxins or two controls for a total 132 samples. These conditions were chosen because of their known effects on metabolism and mitochondria, which were hypothesized to induce changes in proteins and thus provide a suitable testbed for DI-SPA. Again, a peptide discovery experiment (like FIG. 7) was first performed to identify peptides for subsequent targeted quantification experiments, in which 1,384 peptides were identified (peptide-level FDR=0.93%) from 451 proteins (protein-level FDR=2.8%). Next, a quantitative targeted DI-SPA assay was generated to expeditiously monitor the most intense peptide from each of the 451 proteins. This method was used to analyze all 132 samples, generating 132 proteotypes and requiring only 120 seconds of MS data collection per sample. A total of 341 out of 451 protein targets were quantified across all 132 samples in only 4.4 hours of total MS data acquisition, which corresponds to over 45,000 proteins quantified at a rate of nearly three proteins per second (FIG. 4, panel B).
# MitoTox Experiment—Cell Culture. 293T cells were purchased from ATCC (#CRL-3216) and maintained in DMEM (4.5 g/L glucose, 4 mM glutamine, no pyruvate—Thermo #11965092) supplemented with 10% fetal bovine serum (FBS) and 1× penicillin/streptomycin (100 U/mL final [c]). Human Plasma-Like Medium (HPLM) was supplemented with 10% dialyzed FBS (Thermo #26400036) and 1× penicillin/streptomycin (100 U/mL final [c]). For heavy labeling, 293T cells were labeled using the DMEM-based SILAC protein quantitation kit (Thermo #A33972). Briefly, cells were grown for at least 5 passages SILAC-compatible DMEM supplemented with 10% dialyzed FBS, ^13C ^15N2 L-lysine-2HCl and ^13C6 ^15N4 L-arginine HCl, and 1× penicillin/streptomycin. SILAC labeling was confirmed through mass spectrometry analysis and ratios of light/heavy cells were titrated based on analysis of median ratios observed in the controls. All cells were grown in a tissue culture grade incubator held at 37° C. supplemented with 5% CO2. Cells were verified as mycoplasma negative via the e-Myco Mycoplasma PCR Detection Kit (Bulldog Bio #25233).
# MitoTox screen conditions. 293T or PPTC7 knockout 293T cells were split and plated in 24 well plates at 7.5×10^4 cells per well. Cells were allowed to adhere overnight, and media was replaced with fresh DMEM or HPLM for a total of 24 hours prior to collection of cells. Compound treatments were grouped into 6-hour or 24-hour incubations, with 6-hour compound treatments occurring in the last 6 hours of the 24-hour media change, and 24-hour compound treatments occurring for the entire 24 hours of media treatment. Compounds used for 6 hours include antimycin A (5 μM final [c], Sigma #A8674), rotenone (5 μM final [c], Sigma #R8875), oligomycin (2.5 μM final [c], Sigma #04876), CCCP (10 μM final [c], Sigma #C2759), valinomycin (1 μM final [c], Sigma #V0627) and CDDO (2.5 μM final [c], Cayman Chemical #11883)). Compounds used for 24 hours include doxycycline (10 μg/ml final [c], VWR #75844-668) and Deferoxamine (DFO, 100 μM final [c], Sigma #D9533). One compound, 4-nitrobenzoate (4-NB, 1 mM final [c], Sigma #461091), requires 6+ days for efficacy (Forsman et al., Nature Chemical Biology, 6, 515-517 (2010)), and thus cells were treated with this compound for 5 days before being split to 7.5×10^4 cells per well and grouped with the 24 hour incubations. Control, untreated 293T cells were split and harvested with both the 6-hour and 24-hour compound treatment sets. All conditions were plated and collected in 3 replicate wells. […]
row,Molecule,proteome perturbation (UMAP of proteotypes) in relation to 6 h controls
1,CC1(C)CC[C@]2(C(=O)O)CC[C@]3(C)[C@H](C(=O)C=C4[C@@]5(C)C=C(C#N)C(=O)C(C)(C)[C@@H]5CC[C@]43C)[C@@H]2C1 [CDDO],media dependent
2,N#CC(C#N)=NNc1cccc(Cl)c1 [CCCP],produced more (and comparable) proteome rearrangement
3,"CC(C)[C@@H]1NC(=O)[C@H](C)OC(=O)[C@@H](C(C)C)NC(=O)[C@@H](C(C)C)OC(=O)[C@H](C(C)C)NC(=O)[C@H](C)OC(=O)[C@@H](C(C)C)NC(=O)[C@@H](C(C)C)OC(=O)[C@H](C(C)C)NC(=O)[C@H](C)OC(=O)[C@@H](C(C)C)NC(=O)[C@@H](C(C)C)OC1=O [Valinomycin, valinomycin]",induced the most profound proteome perturbation relative to controls
4,CC[C@H]1/C=C/C=C/C[C@@H](C)[C@H](O)[C@@](C)(O)C(=O)[C@@H](C)[C@H](O)[C@@H](C)C(=O)[C@@H](C)[C@H](O)[C@@H](C)/C=C/C(=O)O[C@@H]2[C@H](C)[C@H](CC1)O[C@]1(CC[C@H](C)[C@H](C[C@@H](C)O)O1)[C@H]2C [oligomycin],produced more (and comparable) proteome rearrangement
5,C=C(C)[C@H]1Cc2c(ccc3c2O[C@@H]2COc4cc(OC)c(OC)cc4[C@@H]2C3=O)O1 [rotenone],most similar
6,antimycin A,most similar
